Data taken from patent publication US8362071B2, “Antiadhesion agents” (The Ohio State University Research Foundation, priority 2009, dated 2013).
Entries after “also recorded” stand apart in the source; their conditions may differ. Read-outs that look alike come from different tables or passages of the source.

What was measured:
[1] = system: 4T1 metastatic breast cancer cells; assay: Adhesion assay: 4T1 cell adhesion to a Matrigel-coated surface; format: cell-based, mouse; details: for anti-adhesion potency (in words) / anti-adhesion activity relative to VES (FIG. 2A, in words): 4T1 cells, Matrigel-coated surface; for anti-adhesion activity relative to VES (FIG. 2A, in words): each at 5 μM
Description: Adhesion Assay. Ninety six-well plates were coated with 12% (v/v) Matrigel (BD Biosciences) at 37° C. for 1 hour, washed twice with washing buffer (0.1% BSA-containing RPMI medium) followed by blocking with 0.5% BSA-containing RPMI medium at 37° C. for 60 minutes. 4T1 cells were treated with individual derivatives at the indicated concentrations at 37° C. in a CO2 incubator for 60 minutes, and 2×10^4 cells in 100 μl were seeded in each well. Cells were allowed to adhere to the Matrigel-coated surface for 30 min at 37° C., and nonadherent cells were removed by gentle washing with the aforementioned washing buffer. Adherent cells were fixed with 10% formalin, stained with 0.5% crystal violet, and dissolved in 2% SDS. Absorbance at 570 nm was measured in an ELISA plate reader (Molecular device, Sunnyvale, Calif.).

[2] = system: 4T1 cells; assay: Transwell (Boyden chamber) migration assay, serum-induced; format: cell-based, mouse; details: FIG. 3A
Description: Migration Assay. 4T1 cells were trypsinized for 5 min, washed, and suspended in 0.2% FBS-supplemented RPMI 1640 medium. Five×10^4 cells in 0.5 ml of 0.2% FBS-supplemented RPMI medium containing individual test agents at the indicated concentrations were added to the upper chamber (i.e., insert) of each Transwell system (12 mm, polycarbonate, 12-μm pore, Millipore) in a 24-well plate, and incubated at 37° C. in a CO2 incubator for 30 min. The inserts were then switched to a new well containing 10% FBS-supplemented RPMI 1640 medium for 24 h. All cells in each well were fixed with 10% formalin followed by staining with 0.5% crystal violet. To quantify migrated cells, cells attached to the bottom side of the upper chamber and in the bottom of the well were wiped with a moistened cotton swab, which was then rinsed with 80 μl DDW. The cells were then dissolved by the addition of 320 μl 100% methanol. Enumeration of non-migrated cells was done by placing the chamber into 400 μl of 80% methanol, and incubating for 30 min in an orbital shaker. Absorbance at 570 nm was measured in an ELISA plate reader. Percentage of cell migration in each well was calculated using the following equation: % of migration=100×[(O.D. of migrated cells)−(O.D. of background)]/{[(O.D. of migrated cells)−(O.D. of background)]+[(O.D. of non-migrated cells)−(O.D. of background)]}. The migration activity in each treatment group is expressed as a percentage of that in the vehicle controls, which was considered to be 100%.

[3] = system: 4T1 cells; assay: F-actin immunostaining (actin cytoskeletal structure); format: cell-based, mouse; details: for reduction in the fluorescent intensity of F-actin relative to the DMSO control: 4 h, 4T1 cells; for effect on actin cytoskeleton (stress fibers, lamellipodia; in words): 4 hours of exposure, FIG. 3B
Description: F-actin Immunostaining To assess the effect of test compounds on actin cytoskeletal structures, cells were seeded onto coverslips in six-well plates and incubated overnight, followed by exposure to individual agents at the indicated concentrations for 4 h in 2% FBS-containing RPMI 1640 medium. Cells were then fixed in 3.7% formaldehyde, permeabilized with PBS containing 0.1% Triton X-100 and 0.1% BSA for 1 h, and then incubated with Alexa Fluor 488 phallotoxin staining solution (Molecular Probes, Inc., Eugene, Oreg.) for 30 min. Nuclear counterstaining was achieved by use of 4,6-diamidino-2-phenylindole (DAPI)-containing mounting medium. Immunocytochemically labeled cells were visualized and images captured using a Zeiss microscope (LSM510) with Argon and HeNe lasers, appropriate filters (excitation wavelengths were 488 nm and 543 nm), and a 63×1.4 numerical aperture water immersion lens. Differences in fluorescence intensity were calculated from comparisons of the control sample with each of the treatment samples under the same threshold using MacBiophotonic ImageJ software (National Institutes of Health) and were expressed as percentages of the fluorescent intensity of the untreated control. Statistical significance was evaluated using Student's t-test and considered significant at P<0.05.

[4] = system: focal adhesion kinase (FAK); assay: FAK protein stability by Western blotting; format: cell-based, mouse; details: each at 5 μM, 4T1 cells, 1 h
Description: (§1) VES derivatives target focal adhesion kinase (FAK) degradation. Considering the important role of FAK in regulating the formation of focal adhesions and actin stress fibers (McLean et al., Nat Rev Cancer 5, 505-15 (2005)), the effect of compound 2 on focal adhesion sites in 4T1 cells was assessed by immunostaining with anti-FAK antibodies, the results of which are shown in FIG. 4A. […] It is noteworthy that the disruption of actin stress fibers and focal adhesion by compound 2 is reminiscent of that induced by mannitol in neuroblastoma cells. Kim et al. J Biol Chem 277, 27393-400 (2002). As mannitol-induced cytoskeletal changes were preceded by the degradation of FAK, the effects of compound 2 relative to VES, TS-1, and compounds 1 and 3, each at 5 μM, on FAK protein stability in 4T1 cells was investigated by Western blotting.

[5] = system: focal adhesion kinase (FAK); assay: Focal adhesion sites by immunostaining with anti-FAK antibody; format: cell-based, mouse; details: 2.5 μM, 1 h, 4T1 cells
Description: as §1

[6] = system: breast tumor; details: animal models; Hahn et al. 2006; cited from earlier work
[7] = Mus musculus, 4T1, adhesion to Matrigel-coated surface, FIG. 2B, read-out: IC50, inhibiting 4T1 cell adhesion

Row | IC50 [1, 7] | SMILES | inhibition of serum-induced 4T1 cell migration (in words) ([2]; 5 μM) | anti-adhesion potency (in words) [1] | FAK degradation (in words) [4] | further results
1 | 2000 nM | Cc1c(C)c2c(c(C)c1OCC(=O)O)CCC(C)(CCCC(C)CCCC(C)C)O2 (stereo not shown) [compound 3, [2-(4,8-Dimethyl-nonyl)-2,5,7,8-tetramethyl-chroman-6-yloxy]-acetic acid] | effective in inhibiting cell migration |  |  | reduction in the fluorescent intensity of F-actin relative to the DMSO control ([3]; 10 μM): 70%; effect on actin cytoskeleton (stress fibers, lamellipodia; in words) ([3]; 10 μM): rapid dissolution of stress fiber and impairment of lamellipodia formation
2 | 1300 nM | Cc1c(C)c2c(c(C)c1OC(=O)CCC(=O)O)CCC(C)(C=CCC(C)CCCC(C)C)O2 (stereo not shown) [compound 1, Succinic acid mono-[2-(4,8-dimethyl-non-1-enyl)-2,5,7,8-tetramethyl-chroman-6-yl]ester] | effective in inhibiting cell migration | multifold improvement in the anti-adhesion potency |  | 
3 |  | Cc1c(C)c2c(c(C)c1OC(=O)CCC(=O)O)CCC(C)(CCCC(C)C)O2 (stereo not shown) [TS-2] |  | substantially improved potency vis-à-vis VES |  | anti-adhesion activity relative to VES (FIG. 2A, in words) [1]: to a lesser extent
4 |  | Cc1c(C)c2c(c(C)c1OC(=O)CCC(=O)O)CC[C@@](C)(CCC[C@H](C)CCC[C@H](C)CCCC(C)C)O2 [VES, α-tocopheryl succinate, reference compound] |  | modest inhibitory effect | less evident or not appreciable | inhibition of serum-induced 4T1 cell migration (in words) ([2]; 50 μM): little effect
5 |  | Cc1c(C)c2c(c(C)c1OC(=O)CCC(=O)O)CCC(C)(CCCC(C)CCCC(C)C)O2 (stereo not shown) [TS-1] | little effect | substantially improved potency vis-à-vis VES | less evident or not appreciable | IC50 ([1]; adhesion to Matrigel-coated surface, FIG. 2B, read-out: IC50, inhibiting 4T1 cell adhesion): 2500 nM; anti-adhesion activity relative to VES (FIG. 2A, in words) [1]: significantly improved potencies
6 | 600 nM | Cc1c(C)c2c(c(C)c1OCC(=O)O)CCC(C)(C=CCC(C)CCCC(C)C)O2 (stereo not shown) [compound 2, [2-(4,8-Dimethyl-non-1-enyl)-2,5,7,8-tetramethyl-chroman-6-yloxy]-acetic acid] | effective in inhibiting cell migration |  | induced FAK degradation | IC50 ([1]; Mus musculus, 4T1, summary statement b23, read-out: IC50, blocking the adhesion of 4T1 metastatic breast cancer cells): 600 nM; effect on focal adhesion sites (FAK punctate staining; in words) [5]: loss of focal adhesion sites; also recorded: no longer detectable; reduction in the fluorescent intensity of F-actin relative to the DMSO control ([3]; 5 μM): 84%; effect on actin cytoskeleton (stress fibers, lamellipodia; in words) ([3]; 5 μM): rapid dissolution of stress fiber and impairment of lamellipodia formation
7 |  | Cc1c(C)c2c(c(C)c1OCC(=O)O)CCC(C)(CCCC(C)CCCC(C)CCCC(C)C)O2 (stereo not drawn) [α-tocopheryloxyacetic acid] |  |  |  | effect on breast tumor growth and lung metastasis (in words) [6]: suppress breast tumor growth and to reduce lung metastasis
